Assay results: patent US20230059136A1, “THE COMPOUNDS AND COMPOSITIONS FOR TREATING CONDITIONS ASSOCIATED WITH NLRP ACTIVITY” (Novartis AG, priority 2018, published 2023)
Read-outs that look alike come from different tables or passages of the source.

Test system: IL-1β production in PMA-differentiated THP-1 cells
Assay: IL-1β production in PMA-differentiated THP-1 cells stimulated with gramicidin (hTHP-1 assay containing 2% fetal bovine serum)
Format: cell-based, human
Conditions: 2% fetal bovine serum, read-out: hTHP-1 IC50 (Average IC50 of compounds in hTHP-1 assay)
In short: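 IL-1β release was read by HTRF on supernatants of 50,000 PMA-primed (20 ng/ml, 16-18 h) THP-1 cells/well in 2% FBS medium. Cells saw compound for 1 h (11-point titration from 100 μM, 0.37% DMSO) before a 2 h gramicidin (5 μM) challenge.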

[1] = Homo sapiens, THP-1, Table B2, class symbols
[2] = Homo sapiens, THP-1, Table B2, cells printed as numeric bound
[3] = Homo sapiens, THP-1, Table B1, class symbols
[4] = Homo sapiens, THP-1, Table B1, cells printed as numeric bound

Q: For COc1cc(-c2cccc(C(C)C)c2CC(=O)N=S(N)(=O)c2cnc(C(C)(O)CO)s2)ccn1 (single isomer, unassigned) [Example 351, N-(amino(2-((S or R)-1,2-dihydroxypropan-2-yl)thiazol-5-yl)(oxo)-λ^6-sulfaneylidene)-2-(2-isopropyl-6-(2-methoxypyridin-4-yl)phenyl)acetamide], which IC50 [1] is on record?
A: Its IC50 is 0.2 to 1 µM.

Q: CC(C)c1cc(C#N)cc(C(C)C)c1CC(=O)N=S(=O)(NC#N)c1sc(C(C)(C)O)nc1CO (single isomer, unassigned) [Example 358] was tested. Which IC50 [1] did it give?
A: The IC50 was 0.04 to 0.2 µM.

Q: With CC(C)c1cc(C#N)c(F)c(C(C)C)c1CC(=O)N=S(=O)(NC#N)c1cnc(C(C)(O)CO)s1 (single isomer, unassigned) [Example 359, N-(cyanamido(2-((R or S)-1,2-dihydroxypropan-2-yl)thiazol-5-yl)(oxo)-λ^6-sulfaneylidene)-2-(4-cyano-3-fluoro-2,6-diisopropylphenyl)acetamide] as the compound, how does the IC50 [1] read?
A: The IC50 was 1 to 5 µM.

Q: With CC(C)c1cc(C#N)c(F)c(C(C)C)c1CC(=O)N=[S@](=O)(NC#N)c1cnc([C@](C)(O)CO)s1 (single isomer, unassigned) [Example 371] as the compound, how does the IC50 [1] read?
A: Its IC50 is 5 to 30 µM.

Q: How did the IC50 (Table B2, class symbols) turn out when CC(C)c1cc(C#N)cc(C(C)C)c1CC(=O)N=S(N)(=O)c1sc(C(C)(C)O)nc1CCO (single isomer, unassigned) [Example 383, (R) or (S)-N-(amino(4-(2-hydroxyethyl)-2-(2-hydroxypropan-2-yl)thiazol-5-yl)(oxo)-λ^6-sulfaneylidene)-2-(4-cyano-2,6-diisopropylphenyl)acetamide] was run?
A: Its IC50 is 0.2 to 1 µM.

Q: For CC(C)c1cc(C#N)cc(C(C)C)c1CC(=O)N=S(N)(=O)c1sc(C(C)(C)O)nc1CCO (single isomer, unassigned) [Example 384, (S) or (R)-N-(amino(4-(2-hydroxyethyl)-2-(2-hydroxypropan-2-yl)thiazol-5-yl)(oxo)-λ^6-sulfaneylidene)-2-(4-cyano-2,6-diisopropylphenyl)acetamide], which IC50 (Table B2, class symbols) is on record?
A: Its IC50 is 5 to 30 µM.

Q: For CC(C)c1cc(C#N)cc(C(C)C)c1CC(=O)N=S(N)(=O)c1nc(CO)c(C(C)(C)O)s1 (single isomer, unassigned) [Example 385, (R) or (S)-N-(amino(4-(hydroxymethyl)-5-(2-hydroxypropan-2-yl)thiazol-2-yl)(oxo)-λ^6-sulfaneylidene)-2-(4-cyano-2,6-diisopropylphenyl)acetamide], which IC50 (Table B2, class symbols) is on record?
A: Its IC50 is 0.2 to 1 µM.

Q: CC(C)c1cc(C#N)cc(C(C)C)c1CC(=O)N=S(N)(=O)c1nc(CO)c(C(C)(C)O)s1 (single isomer, unassigned) [Example 386, (S) or (R)-N-(amino(4-(hydroxymethyl)-5-(2-hydroxypropan-2-yl)thiazol-2-yl)(oxo)-λ^6-sulfaneylidene)-2-(4-cyano-2,6-diisopropylphenyl)acetamide] was tested. Which IC50 (Table B2, class symbols) did it give?
A: The IC50 was 5 to 30 µM.

Q: For CC(C)c1nc(C(F)(F)F)nc(C(C)C)c1CC(=O)N=S(N)(=O)c1cnc(C(C)(C)O)s1 (single isomer, unassigned) [Example 396, (S) or (R)-N-(amino(2-(2-hydroxypropan-2-yl)thiazol-5-yl)(oxo)-λ^6-sulfaneylidene)-2-(4,6-diisopropyl-2-(trifluoromethyl)pyrimidin-5-yl)acetamide], which IC50 [1] is on record?
A: The IC50 was 1 to 5 µM.

Q: Which IC50 [2] does the source give for CC(C)c1nc(C(F)(F)F)nc(C(C)C)c1CC(=O)N=S(N)(=O)c1cnc(C(C)(C)O)s1 (single isomer, unassigned) [Example 397, (R) or (S)-N-(amino(2-(2-hydroxypropan-2-yl)thiazol-5-yl)(oxo)-λ^6-sulfaneylidene)-2-(4,6-diisopropyl-2-(trifluoromethyl)pyrimidin-5-yl)acetamide] here?
A: Its IC50 is greater than 30 µM.

Q: Which IC50 [1] does the source give for CCn1cc(F)c(S(N)(=O)=NC(=O)Cc2c(C(C)C)cc3c(c2C(C)C)COC3)n1 (single isomer, unassigned) [Example 398, (R) or (S)-N-(amino(1-ethyl-4-fluoro-1H-pyrazol-3-yl)(oxo)-λ^6-sulfaneylidene)-2-(4,6-diisopropyl-1,3-dihydroisobenzofuran-5-yl)acetamide] here?
A: Its IC50 is 0.2 to 1 µM.

Q: With CCn1cc(F)c(S(N)(=O)=NC(=O)Cc2c(C(C)C)cc3c(c2C(C)C)COC3)n1 (single isomer, unassigned) [Example 399, (S) or (R)-N-(amino(1-ethyl-4-fluoro-1H-pyrazol-3-yl)(oxo)-λ^6-sulfaneylidene)-2-(4,6-diisopropyl-1,3-dihydroisobenzofuran-5-yl)acetamide] as the compound, how does the IC50 [2] read?
A: Its IC50 is greater than 30 µM.

Q: How did the IC50 (Table B2, class symbols) turn out when CCn1cc(F)c(S(N)(=O)=NC(=O)Cc2c(C(C)C)cc3c(c2C(C)C)OC(F)(F)O3)n1 (single isomer, unassigned) [Example 400, (R) or (S)-N-(amino(1-ethyl-4-fluoro-1H-pyrazol-3-yl)(oxo)-λ^6-sulfaneylidene)-2-(2,2-difluoro-4,6-diisopropylbenzo[d][1,3]dioxol-5-yl)acetamide] was run?
A: The IC50 was 0.2 to 1 µM.

Q: For CCn1cc(F)c(S(N)(=O)=NC(=O)Cc2c(C(C)C)cc3c(c2C(C)C)OC(F)(F)O3)n1 (single isomer, unassigned) [Example 401, (S) or (R)-N-(amino(1-ethyl-4-fluoro-1H-pyrazol-3-yl)(oxo)-λ^6-sulfaneylidene)-2-(2,2-difluoro-4,6-diisopropylbenzo[d][1,3]dioxol-5-yl)acetamide], which IC50 (Table B2, class symbols) is on record?
A: Its IC50 is 5 to 30 µM.

Q: For CC(C)c1cc(C#N)c(F)c(C(C)C)c1CC(=O)N=S(N)(=O)c1cnc(C(O)(CO)CO)s1 (single isomer, unassigned) [Example 402, (R) or (S)-N-(amino(oxo) (2-(1,2,3-trihydroxypropan-2-yl)thiazol-5-yl)-λ^6-sulfaneylidene)-2-(4-cyano-3-fluoro-2,6-diisopropylphenyl)acetamide], which IC50 (Table B2, class symbols) is on record?
A: The IC50 was 0.2 to 1 µM.

Q: For CC(C)c1cc(C#N)c(F)c(C(C)C)c1CC(=O)N=S(N)(=O)c1cnc(C(O)(CO)CO)s1 (single isomer, unassigned) [Example 403, (S) or (R)-N-(amino(oxo) (2-(1,2,3-trihydroxypropan-2-yl)thiazol-5-yl)-λ^6-sulfaneylidene)-2-(4-cyano-3-fluoro-2,6-diisopropylphenyl)acetamide], which IC50 (Table B2, class symbols) is on record?
A: The IC50 was 5 to 30 µM.

Q: Which IC50 [3] does the source give for CC(C)c1cc2c(c(C(C)C)c1CC(=O)N=S(=O)(NC#N)c1cc(C(C)(C)O)cs1)COC2 (stereo in doubt) [Example 343, (S)-N-(cyanamido(4-(2-hydroxypropan-2-yl)thiophen-2-yl)(oxo)-λ^6-sulfaneylidene)-2-(4,6-diisopropyl-1,3-dihydroisobenzofuran-5-yl)acetamide] here?
A: The IC50 was 5 to 30 µM.

Q: For CC(C)c1cc2c(c(C(C)C)c1CC(=O)N=S(=O)(NC#N)c1cc(C(C)(C)O)cs1)COC2 (stereo in doubt) [Example 344, (R)-N-(cyanamido(4-(2-hydroxypropan-2-yl)thiophen-2-yl)(oxo)-λ^6-sulfaneylidene)-2-(4,6-diisopropyl-1,3-dihydroisobenzofuran-5-yl)acetamide], which IC50 [3] is on record?
A: Its IC50 is 0.2 to 1 µM.

Q: COc1cc(-c2cccc(C(C)C)c2CC(=O)N=S(=O)(NC#N)c2cnc(C(C)(O)CO)s2)ccn1 (stereo in doubt) [Example 367, N-(cyanamido(2-((S)-1,2-dihydroxypropan-2-yl)thiazol-5-yl)(oxo)-λ^6-sulfaneylidene)-2-(2-isopropyl-6-(2-methoxypyridin-4-yl)phenyl)acetamide] was tested. Which IC50 [1] did it give?
A: Its IC50 is 1 to 5 µM.

Q: With CC(C)(O)c1ncc([S@](N)(=O)=NC(=O)Cc2cc3c(c4c2CCC4)CCC3)s1 [Compound 259b] as the compound, how does the IC50 [4] read?
A: The IC50 was greater than 30 µM.

Q: Which IC50 [4] does the source give for CC(C)c1ncnc(C(C)C)c1CC(=O)N=S(N)(=O)c1cnc(C(C)(C)O)s1 (stereo not shown) [Compound 260] here?
A: Its IC50 is greater than 30 µM.

Q: For CC(C)c1cc2c(cnn2C)c(C(C)C)c1CC(=O)N=S(N)(=O)c1ncc(C(C)(C)O)s1 (stereo not shown) [Compound 1341], which IC50 [4] is on record?
A: The IC50 was greater than 30 µM.

Q: With CC(C)c1cc(F)cc(C(C)C)c1CC(=O)N=S(N)(=O)c1ccc(C(C)(C)O)cc1 (stereo not shown) [Example 1, 2-(4-Fluoro-2,6-diisopropylphenyl)-N-(4-(2-hydroxypropan-2-yl)phenylsulfonimidoyl)acetamide] as the compound, how does the IC50 [3] read?
A: The IC50 was 1 to 5 µM.

Q: How did the IC50 [3] turn out when CC(C)c1cc(F)cc(C(C)C)c1CC(=O)N=S(N)(=O)c1ncc(C(C)(C)O)s1 (stereo not shown) [Example 7, 2-(4-Fluoro-2,6-diisopropylphenyl)-N-(5-(2-hydroxypropan-2-yl)thiazole-2-sulfonimidoyl)acetamide] was run?
A: Its IC50 is 0.2 to 1 µM.

Q: With CC(C)c1cc(F)cc(C(C)C)c1CC(=O)NS(=N)(=O)c1ncc(C(C)(C)O)s1 [Example 8, (S)- and (R)-2-(4-fluoro-2,6-diisopropylphenyl)-N-(5-(2-hydroxypropan-2-yl)thiazole-2-sulfonimidoyl)acetamide] as the compound, how does the IC50 [3] read?
A: Its IC50 is 1 to 5 µM.

Q: With CC(C)c1cc(F)cc(C(C)C)c1CC(=O)N=S(N)(=O)c1sc(C(C)(C)O)cc1F (stereo not shown) [Example 17, 2-(4-fluoro-2,6-diisopropylphenyl)-N-(3-fluoro-5-(2-hydroxypropan-2-yl)thiophen-2-ylsulfonimidoyl)acetamide] as the compound, how does the IC50 (Table B1, class symbols) read?
A: The IC50 was 0.008 to 0.04 µM.

Q: How did the IC50 (Table B1, class symbols) turn out when CC(C)c1c(F)c(C#N)cc(C2CC2)c1CC(=O)N=S(N)(=O)c1sc(C(C)(C)O)cc1F (stereo not shown) [Example 19, 2-(4-cyano-6-cyclopropyl-3-fluoro-2-isopropylphenyl)-N-(3-fluoro-5-(2-hydroxypropan-2-yl)thiophen-2-ylsulfonimidoyl)acetamide] was run?
A: Its IC50 is 0.008 to 0.04 µM.

Q: CC(C)c1cc(Cl)c(F)c(C2CC2)c1CC(=O)N=S(N)(=O)c1sc(C(C)(C)O)cc1F (stereo not shown) [Example 20, 2-(4-chloro-2-cyclopropyl-3-fluoro-6-isopropylphenyl)-N-(3-fluoro-5-(2-hydroxypropan-2-yl)thiophen-2-ylsulfonimidoyl)acetamide] was tested. Which IC50 (Table B1, class symbols) did it give?
A: The IC50 was 0.2 to 1 µM.
